In data set [1] the test system is Trypanosoma brucei brucei. Nature of the data set: Antitrypanosomal activity against Trypanosoma brucei brucei. The format is functional, organism-based.
The nature of data set [2]: Inhibition of Trypanosoma cruzi cruzaine.
For data set [3], the target named is T1, Cathepsin B-like cysteine protease (Trypanosoma brucei, UniProt Q6R7Z5).
T1 sequence (Q6R7Z5 whole entry): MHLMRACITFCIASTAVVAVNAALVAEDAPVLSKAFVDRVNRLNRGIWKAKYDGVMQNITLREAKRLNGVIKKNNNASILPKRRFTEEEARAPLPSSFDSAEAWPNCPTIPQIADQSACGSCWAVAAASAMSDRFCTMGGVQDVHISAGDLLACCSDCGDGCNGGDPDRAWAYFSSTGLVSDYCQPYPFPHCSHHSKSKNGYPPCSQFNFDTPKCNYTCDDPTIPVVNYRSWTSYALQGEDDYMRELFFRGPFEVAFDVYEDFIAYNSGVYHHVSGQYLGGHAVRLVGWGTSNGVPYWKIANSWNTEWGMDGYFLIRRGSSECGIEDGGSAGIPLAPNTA
Nature of the data set: Inhibition of Trypanosoma brucei CatB.

The target of another data set is Rhodesain (Trypanosoma brucei rhodesiense, UniProt Q95PM0). The data set is described as follows: Inhibition of Trypanosoma brucei rhodesiense rhodesain.
Data set [4] can be described thus: Cytotoxicity against african green monkey Vero cells. The format is cell-based. As to conditions: chlorocebus sabaeus.
Data set [5] can be described thus: Selectivity index, ratio of CC50 for african green monkey Vero cells to IC50 for Trypanosoma brucei brucei. The format is functional.

Chain of Rhodesain (Q95PM0 whole entry): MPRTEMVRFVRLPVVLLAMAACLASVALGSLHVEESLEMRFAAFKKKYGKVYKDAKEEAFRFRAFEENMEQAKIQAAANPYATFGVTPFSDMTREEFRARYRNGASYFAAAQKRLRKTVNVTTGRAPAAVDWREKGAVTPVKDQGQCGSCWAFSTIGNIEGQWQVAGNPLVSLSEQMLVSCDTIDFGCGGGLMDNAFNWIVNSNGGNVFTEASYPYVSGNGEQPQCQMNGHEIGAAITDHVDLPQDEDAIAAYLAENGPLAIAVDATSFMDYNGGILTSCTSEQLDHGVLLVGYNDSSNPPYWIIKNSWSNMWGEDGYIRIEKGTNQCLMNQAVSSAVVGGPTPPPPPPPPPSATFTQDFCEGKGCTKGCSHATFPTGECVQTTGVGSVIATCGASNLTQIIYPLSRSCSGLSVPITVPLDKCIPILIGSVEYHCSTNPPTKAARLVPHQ

`C[n+]1c2cc(Cl)ccc2c(NC2CCNCC2)c2[nH]c3ccccc3c21.[Cl-]`: the IC50 (commonly the concentration needed to halve the response being measured) in data set [1] is 0.3 µM; in data set [2], 1 µM; in data set [3] it was 59 µM; against Rhodesain it was 0.5 µM. Also, the midpoint of cytotoxicity in data set [4], the CC50, lay at 4.4 µM. The “Ratio CC50/IC50” value in data set [5] is 147.

Turning to `C[n+]1c2cc(Cl)ccc2c(NC2CCNCC2)c2[nH]c3cc(Cl)ccc3c21.[Cl-]`, the IC50 in data set [1] is less than 0.006 µM; in data set [2] it was 1 µM; in data set [3], 43 µM; against Rhodesain, 0.5 µM. Also, the midpoint of cytotoxicity in data set [4], the CC50, lay at 0.8 µM. Also, in data set [5], the “Ratio CC50/IC50” value is on record as 133.

As to `CCN(CC)CCCCNc1c2ccccc2[n+](C)c2c1[nH]c1ccccc12.[Cl-]`, the IC50 in data set [1] was determined as 0.03 µM; in data set [2], 22 µM; in data set [3] it was 55 µM; at Rhodesain it was 6 µM. Further, half-maximal cytotoxicity in data set [4] (CC50) was put at 10 µM. Further, in data set [5], the “Ratio CC50/IC50” value is listed as 333.

As to `C[n+]1c2ccccc2c(Nc2ccc(N3CCCCC3)cc2)c2[nH]c3ccccc3c21.[Cl-]`, the IC50 came out at 0.08 µM in data set [1], 3 µM in data set [2], 76 µM in data set [3] and 1 µM against Rhodesain. Half-maximal cytotoxicity in data set [4] (CC50) was put at 4.8 µM. In data set [5], the “Ratio CC50/IC50” value was found to be 60.

Turning to `CC(C)CN1CCC(Nc2c3ccccc3[n+](C)c3c2[nH]c2ccccc23)CC1.[Cl-]`, the IC50 in data set [1] was 0.05 µM; in data set [2] it was 8 µM; in data set [3], 26 µM; at Rhodesain it was 2 µM. Moreover, the CC50 (usually the concentration that lowers cell viability or growth by half) in data set [4] came out at 5 µM. For the same compound, the “Ratio CC50/IC50” value in data set [5] worked out at 100.

For the compound `C[n+]1c2ccccc2c(NC2CCN(Cc3ccccc3)CC2)c2[nH]c3ccccc3c21.[Cl-]`, the IC50 in data set [1] is 0.03 µM; in data set [2] it was 8 µM; in data set [3], 32 µM; on Rhodesain, 4 µM. Moreover, in data set [4], the CC50 came out at 2.2 µM. In addition, in data set [5], the “Ratio CC50/IC50” value is recorded as 73.

Take `C[n+]1c2ccccc2c(NC2CCN(Cc3ccccc3O)CC2)c2[nH]c3ccccc3c21.[Cl-]`: the IC50 in data set [1] was found to be 0.04 µM; in data set [2], 6 µM; in data set [3] it was 26 µM; against Rhodesain, 0.9 µM. For the same compound, the CC50 in data set [4] turned out to be 2.6 µM. Also, the “Ratio CC50/IC50” value in data set [5] is given as 65.

For `C[n+]1c2ccccc2c(Nc2ccccc2)c2[nH]c3ccccc3c21.[Cl-]`, the IC50 stood at 0.3 µM in data set [1], 15 µM in data set [2], 99 µM in data set [3] and 7 µM against Rhodesain. The compound further registered a CC50 in data set [4] of 0.6 µM. Moreover, the “Ratio CC50/IC50” value in data set [5] was found to be 2.

As to `CCN(CC)Cc1ccc(Nc2c3ccccc3[n+](C)c3c2[nH]c2ccccc23)cc1O.[Cl-]`, the IC50 in data set [1] was 0.03 µM; in data set [2] it was 10 µM; in data set [3] it was 59 µM; on Rhodesain, 5 µM. Further, the CC50 in data set [4] stood at 0.8 µM. Further, in data set [5], the “Ratio CC50/IC50” value came to 27.

For the compound `C[n+]1c2ccccc2c(Nc2cccnc2)c2[nH]c3ccccc3c21.[Cl-]`, the IC50 in data set [1] is 0.3 µM; in data set [2], 5 µM; in data set [3], 59 µM; against Rhodesain, 2 µM. The compound also gave a CC50 in data set [4] of 2.6 µM. In addition, the “Ratio CC50/IC50” value in data set [5] came to 8.6.

As for `CCN(CC)CCCNc1c2ccc(Cl)cc2[n+](C)c2c1[nH]c1ccccc12.[Cl-]`, the IC50 in data set [1] is 0.02 µM; in data set [2] it was 2 µM; in data set [3] it was 64 µM; against Rhodesain, 0.5 µM. Moreover, the CC50 in data set [4] amounted to 1.3 µM. Besides, the “Ratio CC50/IC50” value in data set [5] turned out to be 65.

As to `CCN(CC)CCNc1c2ccccc2[n+](C)c2c1[nH]c1ccccc12.[Cl-]`, the IC50 in data set [1] was determined as 0.9 µM; in data set [2] it was 23 µM; in data set [3], 95 µM; at Rhodesain, 11 µM. The same compound registered a CC50 in data set [4] of 2.8 µM. Also, the “Ratio CC50/IC50” value in data set [5] is on record as 3.1.

`CN(C)CCCNc1c2ccccc2[n+](C)c2c1[nH]c1ccccc12.[Cl-]`: the half-inhibitory concentration (IC50) in data set [1] was 0.03 µM; in data set [2] it was 14 µM; in data set [3] it was 31 µM; on Rhodesain, 6 µM. In data set [4], this compound registered a CC50 of 2.2 µM. Besides, the “Ratio CC50/IC50” value in data set [5] is on record as 73.

On to `CCN(CC)CCCNc1c2ccccc2[n+](C)c2c1[nH]c1ccccc12.[Cl-]`, for which the IC50 in data set [1] was determined as 0.05 µM; in data set [2], 34 µM; in data set [3] it was 97 µM; at Rhodesain it was 13 µM. Further, the CC50 in data set [4] was 2.5 µM. Besides, the “Ratio CC50/IC50” value in data set [5] turned out to be 40.

As to `CC(C)NCCCNc1c2ccccc2[n+](C)c2c1[nH]c1ccccc12.[Cl-]`, the IC50 turned out to be 0.1 µM in data set [1], 42 µM in data set [2], 62 µM in data set [3] and 26 µM against Rhodesain. The compound also had a CC50 in data set [4] of 3 µM. Further, in data set [5], the “Ratio CC50/IC50” value was 30.

As for `CCN(CC)CCCC(C)Nc1c2ccccc2[n+](C)c2c1[nH]c1ccccc12.[Cl-]` (stereo unspecified), the IC50 is 0.4 µM in data set [1], 27 µM in data set [2], greater than 100 µM in data set [3] and 17 µM against Rhodesain. Besides, the CC50 in data set [4] was found to be 13 µM. Further, the “Ratio CC50/IC50” value in data set [5] is 33.

With `CC(CN(C)C)Nc1c2ccccc2[n+](C)c2c1[nH]c1ccccc12.[Cl-]` (stereo unspecified), the IC50 in data set [1] is 1 µM; in data set [2], 10 µM; in data set [3] it was greater than 100 µM; against Rhodesain, 5 µM. For the same compound, it took 3 µM to reach half-maximal cytotoxicity in data set [4] (CC50). The “Ratio CC50/IC50” value in data set [5] was 3.

For the compound `C[n+]1c2ccccc2c(NC2CCNCC2)c2[nH]c3ccccc3c21.[Cl-]`, the IC50 in data set [1] was 0.01 µM; in data set [2], 3 µM; at Rhodesain, 2 µM. The CC50 in data set [4] is 62 µM. For the same compound, the “Ratio CC50/IC50” value in data set [5] is 6200.

For `CN(C)CC(C)(C)CNc1c2ccccc2[n+](C)c2c1[nH]c1ccccc12.[Cl-]`, the IC50 in data set [1] was 0.3 µM; in data set [2], 26 µM; in data set [3], 62 µM; against Rhodesain, 19 µM. The CC50 in data set [4] turned out to be 3 µM. For the same compound, the “Ratio CC50/IC50” value in data set [5] is reported as 10.

With `C[n+]1c2ccccc2c(NCCCN2CCCCC2)c2[nH]c3ccccc3c21.[Cl-]`, the IC50 in data set [1] came out at 0.06 µM; in data set [2] it was 11 µM; in data set [3] it was 60 µM; against Rhodesain, 5 µM. Further, the CC50 in data set [4] stood at 2 µM. The “Ratio CC50/IC50” value in data set [5] amounted to 33.

Regarding `CN(C)CCNc1c2ccccc2[n+](C)c2c1[nH]c1ccccc12.[Cl-]`, the IC50 in data set [1] stood at 0.7 µM; in data set [2], 23 µM; in data set [3], 91 µM; against Rhodesain, 7 µM. The compound further came in with a CC50 in data set [4] of 5.5 µM. Besides, the “Ratio CC50/IC50” value in data set [5] is recorded as 7.9.

As for `C[n+]1c2ccccc2cc2[n-]c3ccccc3c21.Cl` [CRYPTOLEPINE HYDROCHLORIDE], the IC50 turned out to be 2 µM in data set [1], 28 µM in data set [2], 64 µM in data set [3] and 23 µM at Rhodesain. In data set [4], this compound had a CC50 of 1.1 µM. Further, the “Ratio CC50/IC50” value in data set [5] is recorded as 0.6.

Source of the values: ChEMBL document CHEMBL2086347, “Antitrypanosomal and cysteine protease inhibitory activities of alkyldiamine cryptolepine derivatives” (Bioorg Med Chem Lett, 2012).
